This is an account of results in patent publication US8551999B2, “Heterocyclic compound and pharmaceutical composition thereof” (Otsuka Pharmaceutical Co., Ltd., priority 2007, dated 2013).

Molecules are shown by their SMILES. Structures can show the parent of a compound that is named as a salt. Bounds are passed on as bounds.

For series [1], the system named is LI90 cells, a human hepatic stellate cell line. In words: Inhibitory effect on collagen synthesis (in vitro). Particulars: in the presence of recombinant human TGF-β1, 3H-proline labelled collagen in supernatant. Format: cell-based. On the procedure:
Inhibitory Effect on Collagen Synthesis (In Vitro)
LI90 cells, a human hepatic stellate cell line, were suspended in DMEM (Dulbecco's modified eagle medium) supplemented with 10% inactivated FBS (fetal bovine serum), seeded on a 12-well plate and cultured in a CO2 incubator (preset temperature: 37° C., preset CO2 concentration: 5%). After being cultured for 24 hours, the cells were washed with D-PBS (Dulbecco's phosphate buffered saline), placed in MEM (Eagle's minimum essential medium) supplemented with 0.1% inactivated FBS and then cultured in a CO2 incubator. After being cultured for 3 days, the cells were again washed with D-PBS, placed in MEM (Eagle's minimum essential medium) supplemented with 0.1% inactivated FBS and treated with or without a test compound in the presence of […] recombinant human TGF-β1 (transforming growth factor-β1) in a CO2 incubator for 16 hours. After the incubation, the cells were washed with D-PBS and the medium was replaced with MEM containing 0.25 mM ascorbate. A radio-labeled compound, ^3H-proline, was then added to the culture medium to radio-label the collagen proteins produced. After being cultured for 24 hours, the supernatant was collected and the collagen proteins were extracted from the supernatant as acid-soluble fractions. The amount of collagen produced was determined by measuring the radioactivity contained in the fractions. A concentration of test compound that produced 50% inhibition [IC50 value (nM)] on collagen synthesis was calculated by comparing the radioactivity count in a supernatant of test-compound-treated cells with that of untreated cells (control).

Take `Br.Cn1c(C(=O)N2CCN(Cc3cnc(-c4ccc(C(F)(F)F)cc4)s3)CC2)cc2cc(Oc3ccc(NC(=O)c4ccc(C(F)(F)F)cc4)cn3)ccc21` [Example 572, N-[6-(1-Methyl-2-{4-[2-(4-trifluoromethylphenyl)thiazol-5-yl-methyl]piperazine-1-carbonyl}-1H-indol-5-yloxy)pyridin-3-yl]-4-trifluoromethylbenzamide hydrobromide]: the melting point lay in the range of 218.9 to 220.8 °C. Further, the half-inhibitory concentration (IC50) in series [1] was less than 0.01 µM.

For `COc1ccc(CN(C)C2CCN(C(=O)c3cc4cc(Oc5ccc(NC(=O)c6ccc(C(F)(F)F)cc6)cn5)ccc4n3C)CC2)cc1` [Example 232, N-[6-(2-{4-[(4-Methoxybenzyl)methylamino]piperidine-1-carbonyl}-1-methyl-1H-indol-5-yloxy)pyridin-3-yl]-4-trifluoromethyl-benzamide oxalate], in series [1], the IC50 was less than 0.01 µM.

As to `CC(C)Oc1ccc(CN2CCN(C(=O)c3cc4ccc(Oc5ncc(N(C)S(=O)(=O)c6ccc(Cl)c(Cl)c6)cn5)cc4n3C)CC2)cc1` [Example 43, 3,4-Dichloro-N-(2-{2-[4-(4-isopropoxybenzyl)piperazine-1-carbonyl]-1-methyl-1H-indol-6-yloxy}pyrimidin-5-yl)-N-methyl-benzenesulfonamide], the melting point is 191.2 to 193 °C. Moreover, in series [1], the IC50 is less than 0.01 µM.

Take `Br.CN(C(=O)c1ccc(OC(F)(F)F)cc1)c1ccc(Oc2ccc3cc(C(=O)N4CCN(Cc5ccc(OC(CF)CF)cc5)CC4)n(C)c3c2)nc1` [Example 279, N-[6-(2-{4-[4-(2-Fluoro-1-fluoromethylethoxy)benzyl]piperazine-1-carbonyl}-1-methyl-1H-indol-6-yloxy)pyridin-3-yl]-N-methyl-4-tri-fluoromethoxybenzamide hydrobromide]: the melting point fell in the range of 227.5 to 230.3 °C. Moreover, the IC50 in series [1] is less than 0.01 µM.

On to `COc1ccc(/C=C/CN2CCN(C(=O)c3cc4cc(Oc5ccc(NC(=O)c6ccc(C(F)(F)F)cc6)cn5)ccc4n3C)CC2)cc1.CS(=O)(=O)O` [Example 357, N-[6-(2-{4-[(E)-3-(4-Methoxyphenyl)allyl]piperazine-1-carbonyl}-1-methyl-1H-indol-5-yloxy)pyridin-3-yl]-4-trifluoromethyl-benzamide methanesulfonate], for which the melting point was 246 to 249 °C (dec.). Moreover, in series [1], the IC50 was less than 0.01 µM.

On to `CC(C)CN1CCN(C(=O)c2cc3cc(Oc4ccc(NC(=O)c5ccc(C(F)(F)F)cc5)cn4)ccc3n2C)CC1` [Example 547, N-{6-[2-(4-isobutylpiperazine-1-carbonyl)-1-methyl-1H-indol-5-yloxy]pyridin-3-yl}-4-trifluoromethylbenzamide], for which the 50% inhibitory concentration (IC50) in series [1] is less than 0.01 µM.

The compound `COc1ccc(CN2CCN(C(=O)c3cc4cc(Oc5ncc(NC(=O)c6ccc(C(F)(F)F)cc6)cn5)ccc4n3C)CC2)cc1` [Example 380, N-(2-{2-[4-(4-Methoxybenzyl)piperazine-1-carbonyl]-1-methyl-1H-indol-5-yloxy}pyrimidin-5-yl)-4-trifluoromethylbenzamide] had a melting point of 179 to 180 °C. Also, the IC50 in series [1] is less than 0.01 µM.

Regarding `Cc1ccc(S(=O)(=O)N(C)c2ccc(Oc3ccc4cc(C(=O)N5CCN(Cc6ccc(OCC(F)(F)F)cc6)CC5)[nH]c4c3)nc2)cc1` [Example 41, 4,N-Dimethyl-N-[6-(2-{4-[4-(2,2,2-trifluoroethoxy)benzyl]-piperazine-1-carbonyl}-1H-indol-6-yloxy)pyridin-3-yl]benzene-sulfonamide], the melting point was in the range of 184 to 184.2 °C. For the same compound, the IC50 in series [1] was less than 0.01 µM.

`CN(c1ccc(Oc2ccc3c(c2)cc(C(=O)N2CCN(Cc4ccc(OCC(F)(F)F)cc4)CC2)n3C)nc1)S(=O)(=O)c1ccc(Cl)c(Cl)c1` [Example 528, 3,4-Dichloro-N-methyl-N-[6-(1-methyl-2-{4-[4-(2,2,2-trifluoro-ethoxy)benzyl]piperazine-1-carbonyl}-1H-indol-5-yloxy)pyridin-3-yl]benzenesulfonamide]: the melting point fell in the range of 174.8 to 175.8 °C.

Consider `Br.Cc1ccc(S(=O)(=O)N(C)c2ccc(Oc3ccc4cc(C(=O)N5CCN(Cc6ccc(OC(F)F)cc6)CC5)n(C)c4c3)nc2)cc1` [Example 532, N-(6-{2-[4-(4-Difluoromethoxybenzyl)piperazine-1-carbonyl]-1-methyl-1H-indol-6-yloxy}pyridin-3-yl)-4,N-dimethylbenzene-sulfonamide hydrobromide], for which the melting point is 214.5 to 218.5 °C (dec.).

As to `COc1ccccc1/C=C/CN1CCN(C(=O)c2cc3cc(Oc4ccc(NC(=O)c5ccc(C(F)(F)F)cc5)cn4)ccc3n2C)CC1.CS(=O)(=O)O` [Example 358, N-[6-(2-{4-[(E)-3-(2-Methoxyphenyl)allyl]piperazine-1-carbonyl}-1-methyl-1H-indol-5-yloxy)pyridin-3-yl]-4-trifluoromethyl-benzamide methanesulfonate], the melting point is 268 to 271 °C (dec.).

On to `Br.COc1ccc(CN2CCN(C(=O)c3cc4cc(Oc5ccc(NC(=O)c6ccc(C(F)(F)F)cc6)cn5)ccc4n3C)CC2)cc1OC` [Example 350, N-(6-{2-[4-(3,4-Dimethoxybenzyl)piperazine-1-carbonyl]-1-methyl-1H-indol-5-yloxy}pyridin-3-yl)-4-trifluoromethylbenzamide hydrobromide], for which the melting point lay in the range of 233 to 235 °C.

`CCCOc1ccc(CN2CCN(C(=O)c3cc4ccc(Oc5ccc(N(C)C(=O)c6ccc(OC(F)F)cc6)cn5)cc4n3C)CC2)cc1.Cl` returned a melting point of 226.9 to 229 °C.

Compound `Br.CC(C)c1ccc(CN2CCN(C(=O)c3cc4ccc(Oc5ccc(N(C)C(=O)c6ccc(C(F)(F)F)cc6)cn5)cc4n3C)CC2)cc1` [Example 429, N-(6-{2-[4-(4-Isopropylbenzyl)piperazine-1-carbonyl]-1-methyl-1H-indol-6-yloxy}pyridin-3-yl)-N-methyl-4-trifluoromethylbenzamide hydrobromide] showed a melting point of 255 to 258 °C.

In the case of `COc1ccc(CN2CCN(C(=O)c3cc4cc(Oc5ccc(N(C)C(=O)c6ccc(C(F)(F)F)cc6)cn5)ccc4n3C)CC2)nc1.O=C(O)/C=C\C(=O)O` [Example 387, N-(6-{2-[4-(5-Methoxypyridin-2-ylmethyl)piperazine-1-carbonyl]-1-methyl-1H-indol-5-yloxy}pyridin-3-yl)-N-methyl-4-trifluoromethyl-benzamide maleate], the melting point was 143 to 144 °C.

As for `Cc1cc(C)c(S(=O)(=O)Nc2ccc(Oc3ccc4cc(C(=O)N5CCN(Cc6ccc(OCC(F)(F)F)cc6)CC5)n(C)c4c3)nc2)c(C)c1.Cl`, the melting point fell in the range of 191.3 to 192.5 °C.

`CCCOc1ccc(CN2CCN(C(=O)c3cc4ccc(Oc5ccc(NC(=O)c6ccc(C(F)(F)F)cc6F)cn5)cc4n3C)CC2)cc1.Cl`: the melting point lay within 264 to 266.3 °C.

As to `CC(C)c1ccc(CN2CCN(C(=O)c3cc4cc(Oc5ccc(N(C)C(=O)c6ccc(C(F)(F)F)cc6)cn5)ccc4n3C)CC2)cc1.O=C(O)/C=C\C(=O)O` [Example 412, N-(6-{2-[4-(4-Isopropylbenzyl)piperazine-1-carbonyl]-1-methyl-1H-indol-5-yloxy}pyridin-3-yl)-N-methyl-4-trifluoromethylbenzamide maleate], the melting point fell in the range of 129 to 131 °C.

`Br.CN(C(=O)/C=C/c1cc(F)cc(F)c1)c1ccc(Oc2ccc3c(c2)cc(C(=O)N2CCN(Cc4ccc5c(c4)OCO5)CC2)n3C)nc1` [Example 12, (E)-N-{6-[2-(4-Benzo[1,3]dioxol-5-ylmethylpiperazine-1-carbonyl)-1-methyl-1H-indol-5-yloxy]pyridin-3-yl}-3-(3,5-difluorophenyl)-N-methylacrylamide hydrobromide] gave a melting point of 176 to 178 °C.

For orientation: IC50 means the concentration that gives 50% inhibition. By melting point is commonly meant the temperature of the solid-liquid transition.
